PubChem BioAssay (NCI)
Where “and” joins values, the source holds several entries; their conditions need not be identical. Identical values can stand only once.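 Method: 48-hour compound exposure of cells in 96-well plates, five concentrations, linear interpolation of endpoints. The concentration for 50% growth inhibition is given as GI50. TGI: total growth inhibition.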 Where a SMILES comes first, the peptide text is derived from it. The star is where a group is joined. Boc = CC(C)(C)OC(=O)*; Bz = O=C(c1ccccc1)*

Columns and labels:
Assay in all cases: inhibition of tumour cell growth, NCI panel, 48 h
SR leukemia = tested on: SR leukemia
OVCAR-8 ovarian = tested on: OVCAR-8 ovarian
SK-MEL-28 melanoma = tested on: SK-MEL-28 melanoma
HOP-62 NSCLC = tested on: HOP-62 NSCLC
MDA-MB-435 = tested on: MDA-MB-435
NCI-H460 lung = tested on: NCI-H460 lung
MOLT-4 leukemia = tested on: MOLT-4 leukemia
MCF7 breast = tested on: MCF7 breast
PC-3 prostate = tested on: PC-3 prostate
MALME-3M melanoma = tested on: MALME-3M melanoma

| Structure (SMILES) | TGI (SR leukemia) | TGI (OVCAR-8 ovarian) | TGI (SK-MEL-28 melanoma) | TGI (HOP-62 NSCLC) | TGI (MDA-MB-435) | TGI (NCI-H460 lung) | TGI (MOLT-4 leukemia) | TGI (MCF7 breast) | TGI (PC-3 prostate) | TGI (MALME-3M melanoma) | GI50 (SR leukemia) | GI50 (SK-MEL-28 melanoma) | GI50 (MDA-MB-435) | GI50 (NCI-H460 lung) |
| --- | --- | --- | --- | --- | --- | --- | --- | --- | --- | --- | --- | --- | --- | --- |
| O=S(=O)(O)c1c(Cl)cc(O)c2ncccc12 | > 100 µM | > 100 µM | > 100 µM | > 100 µM | > 100 µM | > 100 µM | > 100 µM | > 100 µM | > 100 µM | – | – | – | – | – |
| CC[C@]1(O)C[C@H]2CN(CCc3c([nH]c4ccccc34)[C@@](C(=O)OC)(c3cc4c(cc3OC)N(C=O)[C@H]3[C@@](O)(C(=O)OC)[C@H](OC(C)=O)[C@]5(CC)C=CCN6CC[C@]43[C@@H]65)C2)C1 | – | – | 113 µM | 56.9 µM and 142 µM | – | 0.775 µM and 2.35 µM | 7.59 µM and 48 µM and 23.3 µM | – | – | 6.23 µM and 32 µM and 58.1 µM | 0.00657 µM | 0.00464 µM | 0.0122 µM | < 0.001 µM |
| CC1=NCCN=C(C)C1N=Nc1ccc2nc(C)[nH]c2c1 | – | 85.1 µM | 24.2 µM | 61.1 µM | 22.3 µM | 52.1 µM | 23.6 µM | 30.1 µM | 22.3 µM | 41.5 µM | – | – | – | – |
| COc1cc(C=O)ccc1Oc1nnnn1-c1ccccc1 | 51.1 µM | > 100 µM | > 100 µM | > 100 µM | > 100 µM | > 100 µM | 75.1 µM | – | > 100 µM | > 100 µM | – | – | – | – |
| C/C(CC/C(C)=N/O)=N\O | – | > 100 µM | > 100 µM | > 100 µM | > 100 µM | > 100 µM | > 100 µM | > 100 µM | > 100 µM | > 100 µM | – | – | – | – |
| COc1ccc(/C=C2\CCC(C)C3=C(c4ccc(OC)c(OC)c4)C(C#N)=C(N)OC32)cc1OC (stereo not drawn) | – | > 100 µM | 31.7 µM | – | 10.1 µM | 11.1 µM | – | 19.5 µM | 38.1 µM | 32.2 µM | – | – | – | – |
| CS(=O)(=O)c1ccc(/C=N/NC(N)=S)cc1 | – | > 100 µM | > 100 µM | > 100 µM | > 100 µM | > 100 µM | > 100 µM | > 100 µM | > 100 µM | > 100 µM | – | – | – | – |
| O=C1/C(=C/c2ccccc2)CCCC1CN1CCCCC1 (stereo not drawn) | – | 4.13 µM | 3.77 µM | 35.5 µM | 4.26 µM | 32.4 µM | > 100 µM | 1.69 µM | 24.1 µM | 3.97 µM | – | – | – | – |
| COc1ccc(C2=CC(c3ccccc3)n3nnnc3N2)cc1 (stereo not drawn) | > 100 µM | > 100 µM | – | > 100 µM | > 100 µM | > 100 µM | > 100 µM | > 100 µM | > 100 µM | – | – | – | – | – |
| O=C(O)c1cc2ccccc2c(N=Nc2ccccc2)c1O | – | > 100 µM | > 100 µM | 32.5 µM | 35.5 µM | – | > 100 µM | – | 60.1 µM | 26.6 µM | – | – | – | – |
| CC1(C)CCC[C@@]2(C)C1CCC1(C)C(CCc3ccoc3)/C(=C/OS(=O)(=O)O)CCC12 (stereo partly drawn) (tested in a mixture with another compound) | > 100 µM | > 100 µM | > 100 µM | > 100 µM | – | > 100 µM | 79.7 µM | – | – | > 100 µM | – | – | – | – |
| Oc1ccc(-c2csc(NNC3=NC/C(=C/c4ccc5c(c4)OCO5)S3)n2)cc1O | – | > 100 µM | > 100 µM | > 100 µM | > 100 µM | > 100 µM | > 100 µM | > 100 µM | > 100 µM | – | – | – | – | – |
| CC(C)(C)OC(=O)NCCCCC(N)C(N)=O (stereo not drawn) | – | > 100 µM | > 100 µM | > 100 µM | > 100 µM | > 100 µM | > 100 µM | > 100 µM | > 100 µM | > 100 µM | – | – | – | – |
| ClCCCN(CCCCl)c1ccc(C=Nc2cccc(Cl)c2)cc1 | – | 56.5 µM | > 100 µM | > 75.1 µM | > 80.5 µM | > 82.1 µM | > 67.4 µM | > 70.4 µM | 50.7 µM | 44.3 µM | – | – | – | – |
| CCC(C)n1c(C)nc2c1C(=O)c1ccccc1C2=O (stereo not drawn) | > 100 µM | > 100 µM | > 100 µM | > 100 µM | – | 50.8 µM | > 100 µM | – | – | 77.9 µM | – | – | – | – |
| Cc1ccccc1C(=O)c1c(O)c2c(c(O)c1Br)CCCC2 | 44.5 µM | 36 µM | – | > 100 µM | – | 56.6 µM | 31.4 µM | – | – | 24.7 µM | – | – | – | – |
| CC(=O)OC1=c2ccccc2=C(O)C2C1C=NN2C(C)=O (stereo not drawn) | – | > 100 µM | > 100 µM | > 100 µM | > 100 µM | > 100 µM | > 100 µM | > 100 µM | > 100 µM | > 100 µM | – | – | – | – |
| CCNC(C)Cc1ccccc1 (stereo not drawn) | > 100 µM | > 100 µM | > 100 µM | > 100 µM | – | > 100 µM | – | – | – | > 100 µM | – | – | – | – |

| Structure (SMILES) | TGI (SR leukemia) | TGI (OVCAR-8 ovarian) | TGI (SK-MEL-28 melanoma) | TGI (HOP-62 NSCLC) | TGI (MDA-MB-435) | TGI (NCI-H460 lung) | TGI (MOLT-4 leukemia) | TGI (MCF7 breast) | TGI (PC-3 prostate) | TGI (MALME-3M melanoma) | GI50 (SR leukemia) | GI50 (SK-MEL-28 melanoma) | GI50 (MDA-MB-435) | GI50 (NCI-H460 lung) |
| --- | --- | --- | --- | --- | --- | --- | --- | --- | --- | --- | --- | --- | --- | --- |
| NC(Cc1ccc(S(=O)(=O)O)cc1)C(=O)NC(CCCCNC(=O)NCCCCC(NC(=O)C(N)Cc1ccc(S(=O)(=O)O)cc1)C(=O)NC(Cc1ccc(S(=O)(=O)O)cc1)C(=O)O)C(=O)NC(Cc1ccc(S(=O)(=O)O)cc1)C(=O)O (stereo not drawn) | – | > 100 µM | > 100 µM | > 100 µM | > 100 µM | > 100 µM | > 100 µM | > 100 µM | > 100 µM | > 100 µM | – | – | – | – |
| COc1cc2c[n+](C)c3c4cc(OC)c(OC)cc4c(OC)cc3c2cc1OC | – | 23 µM | > 81.9 µM | > 100 µM | > 60.4 µM | > 100 µM | – | > 100 µM | 98.9 µM | 9.44 µM | – | – | – | – |
| COc1ccc(Oc2cccc(/C=C3/C(=O)Nc4ccccc43)c2)cc1 | – | > 100 µM | 23.6 µM | 28 µM | 13.8 µM | 25 µM | 13 µM | 12.8 µM | 18.8 µM | 24.2 µM | – | – | – | – |
| CC(=O)OC12/C(=N/O)CCCCCC1c1ccccc12 (stereo not drawn) | > 100 µM | > 100 µM | > 100 µM | > 100 µM | – | > 100 µM | > 100 µM | – | – | > 100 µM | – | – | – | – |
| CC(NC(=O)C(Cc1ccc(OC(=O)c2ccccc2)cc1)NC(=O)OC(C)(C)C)C(=O)NC(Cc1ccccc1)C(=O)NCC(N)=O (stereo not drawn) (Boc-Y(Bz)AFG-NH2; configuration not given here) | – | 58.8 µM | > 100 µM | 31.4 µM | 47.4 µM | 33.7 µM | > 100 µM | 40.8 µM | 37.3 µM | 42 µM | – | – | – | – |
| COc1cc(C2SCC(=O)N2c2cc(Cl)c(Cl)cc2Cl)cc(OC)c1OC (stereo not drawn) | 84.3 µM | > 100 µM | > 100 µM | – | > 100 µM | > 100 µM | > 100 µM | > 100 µM | > 100 µM | – | – | – | – | – |
| CCc1ccc(N=Cc2cc(OC)c(OC)c(OC)c2)cc1 | – | > 100 µM | > 100 µM | > 100 µM | – | > 100 µM | > 100 µM | – | – | > 100 µM | – | – | – | – |
| O=C(OCc1ccccc1CN1CCOCC1)c1cccc(Br)c1 | – | > 100 µM | > 100 µM | > 100 µM | > 100 µM | > 100 µM | – | > 100 µM | > 100 µM | 45 µM | – | – | – | – |
| COC1=C2CC(C)CC(OC)C(O)C(C)/C=C(\C)C(OC(N)=O)C(OC)/C=C\C=C(/C)C(=O)NC(=C(C=NC(C)(C)C)C1=O)C2=O (stereo not drawn) | – | 73.6 µM | 11.7 µM | 41 µM | – | 18.4 µM | 12.1 µM | 35.7 µM | – | 5.23 µM | – | – | – | – |
| CC(=N\N)/C(C)=N/N=C(C)/C(C)=N/N=C(C)/C(C)=N/N=C(C)/C(C)=N/N | – | > 100 µM | > 100 µM | > 100 µM | > 100 µM | > 100 µM | > 100 µM | > 100 µM | > 100 µM | > 100 µM | – | – | – | – |
| CN(C)CCOc1cccc2c1C(=O)c1ccccc1C2=O | – | 56 µM | 28.6 µM | 30.9 µM | – | 19.2 µM | 21.5 µM | – | – | 26.5 µM | – | – | – | – |
| O=[N+]([O-])c1nc(-c2ccccn2)[nH]c1[N+](=O)[O-] | > 100 µM | – | > 100 µM | > 100 µM | – | > 100 µM | > 100 µM | – | – | > 100 µM | – | – | – | – |
| NCC(=O)NC1(c2cc3ccccc3s2)CCCCC1 | 19.2 µM | > 100 µM | 39.8 µM | > 100 µM | > 100 µM | > 100 µM | – | > 100 µM | – | 36.3 µM | – | – | – | – |
| CC[C@@]1(N(C)C)C(=O)OCc2c1cc1n(c2=O)Cc2cc3ccccc3nc2-1 | – | 31.2 µM | > 100 µM | 36.2 µM | > 100 µM | 50.6 µM | – | > 100 µM | > 100 µM | 55.3 µM | – | – | – | – |
| OCC1OC(n2nc(-c3ccccc3)nc2-c2cnccn2)C(O)C(O)C1O (stereo not drawn) | – | > 100 µM | > 100 µM | > 100 µM | > 100 µM | > 100 µM | > 100 µM | > 100 µM | > 100 µM | – | – | – | – | – |
| CC(C)(C)c1cc(CC2C(=O)c3ccccc3C2=O)cc(C(C)(C)C)c1O | 16.6 µM | 14.7 µM | – | 9.08 µM | 20 µM | 43.3 µM | 9.56 µM | > 100 µM | 10.3 µM | – | – | – | – | – |
| COc1ccc2nc3cc(Cl)ccc3c(NCCCN(Cc3cc(OC)c(OC)c(OC)c3)Cc3cc(OC)c(OC)c(OC)c3)c2c1 | – | 25.5 µM | 33.2 µM | 24.4 µM | – | 23.6 µM | 7.11 µM | 30.4 µM | 30.6 µM | 44.1 µM | – | – | – | – |
